{
  "source": "patent US10253071B2",
  "about": "“Selectin inhibitors, composition, and uses related thereto” (Beth Israel Deaconess Medical Center, Inc., priority 2014, dated 2019)",
  "key": {"[1]": {"molecular_target": "T1, human P-selectin (Homo sapiens, UniProt P16109)", "T1 sequence (P16109 42-830)": "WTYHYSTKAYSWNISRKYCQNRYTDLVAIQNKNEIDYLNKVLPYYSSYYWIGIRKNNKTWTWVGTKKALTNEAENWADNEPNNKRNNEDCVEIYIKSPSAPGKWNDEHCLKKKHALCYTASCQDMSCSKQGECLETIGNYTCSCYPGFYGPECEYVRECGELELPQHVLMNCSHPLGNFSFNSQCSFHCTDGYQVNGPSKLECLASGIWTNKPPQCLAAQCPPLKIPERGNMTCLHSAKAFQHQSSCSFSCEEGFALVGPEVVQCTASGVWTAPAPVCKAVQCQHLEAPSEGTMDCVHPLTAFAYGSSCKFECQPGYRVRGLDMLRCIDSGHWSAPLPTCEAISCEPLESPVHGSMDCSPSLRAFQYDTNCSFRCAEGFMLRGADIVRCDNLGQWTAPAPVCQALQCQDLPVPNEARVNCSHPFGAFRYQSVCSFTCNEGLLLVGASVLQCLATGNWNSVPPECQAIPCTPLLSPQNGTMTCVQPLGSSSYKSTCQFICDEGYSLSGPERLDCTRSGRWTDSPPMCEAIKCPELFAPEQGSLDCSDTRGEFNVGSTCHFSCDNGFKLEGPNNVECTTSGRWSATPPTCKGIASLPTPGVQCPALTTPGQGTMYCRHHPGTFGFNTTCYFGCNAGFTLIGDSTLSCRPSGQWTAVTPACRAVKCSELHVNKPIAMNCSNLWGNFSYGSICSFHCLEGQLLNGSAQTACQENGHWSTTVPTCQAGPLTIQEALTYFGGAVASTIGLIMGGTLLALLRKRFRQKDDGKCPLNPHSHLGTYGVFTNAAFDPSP", "assay": "Biacore binding assay, human P-selectin", "protocol": "(§1) Bound peptides were detected using Alexa-488 labeled anti-human IgG antibody (5 μg/mL). Three lectins RCA-1, AAL, and PNA were used to confirm the sequence of enzymatic steps. Monoclonal antibodies CHO131, PSG2 antibody and PL-1 were used to confirm the presence of SLex, tyrosine sulfates, and the peptide sequence, respectively. Biacore binding analysis to human P-selectin with observed rate constants for (D) GSnP-6, kon 3.1×10^5 M^−1s^−1, koff 6.9×10^3 M^−1s^−; GSn2P-6, kon6.4×10^5 M^−1s^−1, koff 6.8×10^3 M^−1s. Biacore binding analysis to mouse P-selectin with observed rate constants for (E) GsnP-6, kon 4.9×10^4 M^−1s^−1, koff 8.0×10^3 M^−1s^−; GSn2P-6 kon 5.3×10^4 M^−1s^−1, koff 9.0×10^3 M^−1s. (F) Temperature- and pH-dependent stability studies of GSnP-6.\n(§2) Dissociation constants (Kd) were determined using a Biacore binding assay after initial capture of biotinylated GS(n)P-6 onto streptavidin-coated sensor chips followed by flow through of P-, L- or E-sel-Ig (2.5 to 60 μg/mL). […] The Kd of GSnP-6 to murine P-selectin was ˜9-fold lower than to human P-selectin."}, "[2]": {"molecular_target": "T2, mouse P-selectin (Mus musculus, UniProt Q01102)", "T2 sequence (Q01102 42-768)": "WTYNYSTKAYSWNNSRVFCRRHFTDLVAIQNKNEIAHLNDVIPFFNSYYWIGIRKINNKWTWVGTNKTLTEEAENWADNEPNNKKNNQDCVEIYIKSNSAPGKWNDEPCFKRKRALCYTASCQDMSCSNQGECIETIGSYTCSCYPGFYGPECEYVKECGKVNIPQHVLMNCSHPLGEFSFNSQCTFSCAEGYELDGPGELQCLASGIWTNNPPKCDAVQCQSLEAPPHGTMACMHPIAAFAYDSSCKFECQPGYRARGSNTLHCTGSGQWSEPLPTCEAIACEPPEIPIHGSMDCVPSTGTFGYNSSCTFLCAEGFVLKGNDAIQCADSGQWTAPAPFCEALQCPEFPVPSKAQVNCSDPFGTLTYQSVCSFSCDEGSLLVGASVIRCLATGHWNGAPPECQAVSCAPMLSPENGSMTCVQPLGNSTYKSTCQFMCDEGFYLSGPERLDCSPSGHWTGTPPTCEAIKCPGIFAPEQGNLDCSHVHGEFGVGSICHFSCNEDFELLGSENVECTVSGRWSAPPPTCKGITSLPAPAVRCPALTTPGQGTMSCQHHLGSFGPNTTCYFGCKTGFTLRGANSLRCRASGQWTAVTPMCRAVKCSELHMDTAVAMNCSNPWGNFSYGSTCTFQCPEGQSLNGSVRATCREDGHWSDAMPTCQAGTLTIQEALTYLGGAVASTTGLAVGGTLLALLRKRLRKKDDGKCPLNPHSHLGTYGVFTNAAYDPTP", "assay": "Biacore binding assay, mouse P-selectin", "protocol": "as §1, §2"}, "[3]": {"assay": "Chemical stability at low pH and at high temperature (RP-HPLC)", "assay_type": "physicochemical", "details": "sodium acetate/acetic acid buffer pH 5, 37° C.; and 2 mM phosphate buffer pH 7.5, 60° C.", "protocol": "as §1\nThe chemical stability of GSnP-6 was evaluated under low pH conditions by incubating the compound in sodium acetate/acetic acid buffer at pH 5, 37° C., as well as under high temperature conditions by incubation in 2 mM phosphate buffer at pH 7.5, 60° C. (FIG. 3E)."}, "[4]": {"tested_on": "P-selectin (recombinant Ig chimera)", "assay": "Microarray binding screen of glycopeptide mimics, P-selectin", "set-up": "species or system human and mouse", "details": "selectin Ig chimeras 5-20 μg/mL, Alexa-488 anti-human IgG", "protocol": "as §1\nBinding affinities of PSGL-1 mimics towards selectins was initially screened using a microarray in which glycosulfopeptides and glycan standards (Sialyl Le^x, NA2, NA2,3, NA2,6 and LNnT) were printed on a NHS-activated glass slide. The slide was then incubated with recombinant Ig chimeras of P-, L-, or E-selectin (5-20 μg/mL) followed by Alexa-488 labeled anti-human IgG antibody (5 μg/mL). […] Binding of glycopeptides mimics to selectins was […] dependent and inhibited by EDTA."}, "[5]": {"molecular_target": "T1, human P-selectin", "details": "comparison value for P-selectin; read-out: Kd of native PSGL-1 (comparison value); cited from earlier work"}},
  "note": "Where two headings read alike, the source gives them in different places. Square brackets hold non-standard residues; d marks the D form. Ends that are not written are not given here. Peptide text beside a SMILES is read from it. * marks the point of attachment. X1 = CC(=O)N[C@@H]1[C@@H](O[C@@H]2O[C@H](CO)[C@H](O)[C@H](O)[C@H]2O)[C@@H](O)[C@@H](CO[C@@H]2O[C@H](CO)[C@@H](O[C@@H]3O[C@H](CO)[C@H](O)[C@H](O[C@]4(C(=O)O)C[C@H](O)[C@@H](NC(C)=O)[C@H]([C@H](O)[C@H](O)CO)O4)[C@H]3O)[C@H](O[C@@H]3O[C@@H](C)[C@@H](O)[C@@H](O)[C@@H]3O)[C@H]2NC(C)=O)O[C@@H]1*; Phe(4-SO3H) = N[C@@H](Cc1ccc(S(=O)(=O)O)cc1)C(=O)O; Mca = COc1ccc2c(CC(=O)*)cc(=O)oc2c1",
  "data": [
    {"molecule": "COc1ccc2c(CC(=O)NCCCC[C@H](N)C(=O)N[C@@H](CCC(=O)O)C(=O)N[C@@H](Cc3ccc(S(=O)(=O)O)cc3)C(=O)N[C@@H](CCC(=O)O)C(=O)N[C@@H](Cc3ccc(S(=O)(=O)O)cc3)C(=O)N[C@@H](CC(C)C)C(=O)N[C@@H](CC(=O)O)C(=O)N[C@@H](Cc3ccc(S(=O)(=O)O)cc3)C(=O)N[C@@H](CC(=O)O)C(=O)N[C@@H](Cc3ccccc3)C(=O)N[C@@H](CC(C)C)C(=O)N3CCC[C@H]3C(=O)N[C@@H](CCC(=O)O)C(=O)N[C@H](C(=O)N[C@@H](CCC(=O)O)C(=O)N3CCC[C@H]3C(=O)N[C@@H](CC(C)C)C(=O)O)[C@@H](C)O[C@H]3O[C@H](CO[C@@H]4O[C@H](CO)[C@@H](O[C@@H]5O[C@H](CO)[C@H](O)[C@H](O[C@]6(C(=O)O)C[C@H](O)[C@@H](NC(C)=O)[C@H]([C@H](O)[C@H](O)CO)O6)[C@H]5O)[C@H](O[C@@H]5O[C@@H](C)[C@@H](O)[C@@H](O)[C@@H]5O)[C@H]4NC(C)=O)[C@H](O)[C@H](O[C@@H]4O[C@H](CO)[C@H](O)[C@H](O)[C@H]4O)[C@H]3NC(C)=O)cc(=O)oc2c1", "note": "[GSn2P-6] (H-K(Mca)E[Phe(4-SO3H)]E[Phe(4-SO3H)]LD[Phe(4-SO3H)]DFLPET(X1)EPL-OH; N-terminus assumed)", "values": [
      {"measurement": "koff", "setting": "[1]; Biacore observed rate constant", "result": 0.0068, "unit": "s⁻¹"},
      {"measurement": "kon", "setting": "[1]; Biacore observed rate constant", "result": 640000, "unit": "M⁻¹ s⁻¹"},
      {"measurement": "Kd", "setting": "[1]; biotinylated GS(n)P-6 captured on streptavidin chip, P-sel-Ig 2.5 to 60 μg/mL, read-out: Dissociation constant (Kd) to human P-selectin", "result": 14, "unit": "nM"},
      {"measurement": "koff", "setting": "[2]; read-out: koff, mouse P-selectin", "result": 0.009, "unit": "s⁻¹"},
      {"measurement": "kon", "setting": "[2]; read-out: kon, mouse P-selectin", "result": 53000, "unit": "M⁻¹ s⁻¹"}
    ]},
    {"molecule": "GSP-6: Tyrosine O-sulfate series (X: O; R=H); native N-terminal PSGL-1 sequence containing tyrosine sulfate, hexasaccharide glycan (EYEYLDYDFLPETEPPE; also: tyrosine O-sulfate, positions not given here, hexasaccharide glycan, site not given here) [reference compound]", "values": [
      {"measurement": "chemical stability (degraded products by RP-HPLC)", "setting": "[3]", "result": "rapidly degrades"},
      {"measurement": "binding to P-selectin compared with E- or L-selectin", "setting": "[4]", "result": "bound to P-selectin more strongly than to E- or L-selectin"}
    ]},
    {"molecule": "native PSGL-1: native P-selectin glycopeptide ligand-1, Kd comparison value (protein, UniProt Q14242 42-412, looked up) P-selectin glycoprotein …: QATEYEYLDYDFLPETEPPEMLRNSTDTTPLTGPGTPESTTVEPAARRSTGLDAGGAVTELTTELANMGNLSTDSAAMEIQTTQPAATEAQTTQPVPTEAQTTPLAATEAQTTRLTATEAQTTPLAATEAQTTPPAATEAQTTQPTGLEAQTTAPAAMEAQTTAPAAMEAQTTPPAAMEAQTTQTTAMEAQTTAPEATEAQTTQPTATEAQTTPLAAMEALSTEPSATEALSMEPTTKRGLFIPFSVSSVTHKGIPMAASNLSVNYPVGAPDHISVKQCLLAILILALVATIFFVCTVVLAVRLSRKGHMYPVRNYSPTEMVCISSLLPDGGEGPSATANGGLSKAKSPGLTPEPREDREGDDLTLHSFLP", "values": [
      {"measurement": "Kd", "setting": "[5]", "result": 73, "unit": "nM"}
    ]}
  ]
}
